{"source": "ChEMBL document CHEMBL1129876", "about": "“The synthesis and activity of spiroindane growth hormone secretagogues” (Bioorg Med Chem Lett, 1997)", "key": {"Canis familiaris [1]": {"tested_on": "Canis familiaris", "assay": "Tested for response in dogs after peroral administration of 0.5 mg/kg; cured/treated is 1/2", "type": "functional, organism-based", "parameters": "dose 0.5 mg/kg", "conditions": "Canis lupus familiaris"}, "Canis familiaris [2]": {"tested_on": "Canis familiaris", "assay": "Tested for response in dogs after iv administration of 0.1 mg/kg; cured/treated is 0/1", "type": "functional, organism-based", "parameters": "dose 0.1 mg/kg", "conditions": "Canis lupus familiaris"}, "Rattus norvegicus": {"species": "Rattus norvegicus", "assay": "The compound was evaluated for its ability to release growth hormone from rat pituitary cells.", "type": "functional, cell-based", "conditions": "Pituitary gland cell"}, "Canis familiaris [3]": {"tested_on": "Canis familiaris", "assay": "Tested for response in dogs after peroral administration of 1 mg/kg; cured/treated is 2/2", "type": "functional, organism-based", "parameters": "dose 1 mg/kg", "conditions": "Canis lupus familiaris"}, "Canis familiaris [4]": {"tested_on": "Canis familiaris", "assay": "Tested for response in dogs after iv administration of 0.05 mg/kg; cured/treated is 1/2", "type": "functional, organism-based", "parameters": "dose 0.05 mg/kg", "conditions": "Canis lupus familiaris"}, "Canis familiaris [5]": {"tested_on": "Canis familiaris", "assay": "Tested for response in dogs after oral administration of 1 mg/kg; cured/treated is 2/2", "type": "functional, organism-based", "parameters": "dose 1 mg/kg", "conditions": "Canis lupus familiaris"}, "Canis familiaris [6]": {"tested_on": "Canis familiaris", "assay": "Tested for response in dogs after oral administration of 0.5 mg/kg; cured/treated is 1/2", "type": "functional, organism-based", "parameters": "dose 0.5 mg/kg", "conditions": "Canis lupus familiaris"}, "Canis familiaris [7]": {"tested_on": "Canis familiaris", "assay": "Tested for response in dogs after oral administration of 1 mg/kg; cured/treated is 1/1", "type": "functional, organism-based", "parameters": "dose 1 mg/kg", "conditions": "Canis lupus familiaris"}, "Canis familiaris [8]": {"tested_on": "Canis familiaris", "assay": "Tested for response in dogs after oral administration of 2 mg/kg; cured/treated is 0/1", "type": "functional, organism-based", "parameters": "dose 2 mg/kg", "conditions": "Canis lupus familiaris"}, "Canis familiaris [9]": {"tested_on": "Canis familiaris", "assay": "Tested for response in dogs after iv administration of 0.1 mg/kg; cured/treated is 1/1", "type": "functional, organism-based", "parameters": "dose 0.1 mg/kg", "conditions": "Canis lupus familiaris"}, "Canis familiaris [10]": {"tested_on": "Canis familiaris", "assay": "Tested for response in dogs after iv administration of 0.05 mg/kg; cured/treated is 0/1", "type": "functional, organism-based", "parameters": "dose 0.05 mg/kg", "conditions": "Canis lupus familiaris"}, "Canis familiaris [11]": {"tested_on": "Canis familiaris", "assay": "Tested for response in dogs after peroral administration of 0.25 mg/kg; cured/treated is 2/2", "type": "functional, organism-based", "parameters": "dose 0.25 mg/kg", "conditions": "Canis lupus familiaris"}, "Canis familiaris [12]": {"tested_on": "Canis familiaris", "assay": "Tested for response in dogs after iv administration of 0.025 mg/kg; cured/treated is 1/1", "type": "functional, organism-based", "parameters": "dose 0.025 mg/kg", "conditions": "Canis lupus familiaris"}, "Canis familiaris [13]": {"tested_on": "Canis familiaris", "assay": "Tested for response in dogs after peroral administration of 0.125 mg/kg; cured/treated is 1/2", "type": "functional, organism-based", "parameters": "dose 0.125 mg/kg", "conditions": "Canis lupus familiaris"}, "Canis familiaris [14]": {"tested_on": "Canis familiaris", "assay": "Tested for response in dogs after iv administration of 0.05 mg/kg; cured/treated is 1/1", "type": "functional, organism-based", "parameters": "dose 0.05 mg/kg", "conditions": "Canis lupus familiaris"}}}
{"compound": "CC(C)(N)C(=O)N[C@H](CCCc1ccccc1)C(=O)N1CCC2(CCc3ccccc32)CC1", "values": [{"measurement": "Response", "setting": "Canis familiaris [1]", "result": "cured/treated is 0/1"}, {"measurement": "Response", "setting": "Canis familiaris [2]", "result": "cured/treated is 0/1"}, {"measurement": "EC50", "setting": "Rattus norvegicus", "result": 10, "unit": "nM"}, {"measurement": "Response", "setting": "Canis familiaris [3]", "result": "cured/treated is 0/1"}]}
{"compound": "CC(C)(N)C(=O)N[C@H](Cc1c[nH]c2ccccc12)C(=O)N1CCC2(CC1)c1ccccc1C(O)C2O", "note": "(stereo partly specified)", "values": [{"measurement": "EC50", "setting": "Rattus norvegicus", "result": 30, "unit": "nM"}]}
{"compound": "CC(C)(N)C(=O)N[C@H](Cc1c[nH]c2ccccc12)C(=O)N1CCC2(CC1)c1ccccc1CC2O", "note": "(stereo partly specified)", "values": [{"measurement": "EC50", "setting": "Rattus norvegicus", "result": 65, "unit": "nM"}]}
{"compound": "CC(C)(N)C(=O)N[C@H](Cc1c[nH]c2ccccc12)C(=O)N1CCC2(CC1)CC(=O)c1ccccc12", "values": [{"measurement": "EC50", "setting": "Rattus norvegicus", "result": 1.2, "unit": "nM"}, {"measurement": "Response", "setting": "Canis familiaris [4]", "result": "cured/treated is 1/2"}, {"measurement": "Response", "setting": "Canis familiaris [5]", "result": "cured/treated is 1/2"}, {"measurement": "Response", "setting": "Canis familiaris [6]", "result": "cured/treated is 1/2"}]}
{"compound": "CC(C)(N)C(=O)N[C@H](Cc1c[nH]c2ccccc12)C(=O)N1CCC2(CCc3ccccc32)CC1", "values": [{"measurement": "Response", "setting": "Canis familiaris [7]", "result": "cured/treated is 0/1"}, {"measurement": "Response", "setting": "Canis familiaris [8]", "result": "cured/treated is 0/1"}, {"measurement": "Response", "setting": "Canis familiaris [9]", "result": "cured/treated is 0/1"}, {"measurement": "Response", "setting": "Canis familiaris [10]", "result": "cured/treated is 0/1"}]}
{"compound": "CC(C)(N)C(=O)N[C@H](CCCc1ccccc1)C(=O)N1CCC2(CC1)CC(O)c1ccccc12", "note": "(stereo partly specified)", "values": [{"measurement": "EC50", "setting": "Rattus norvegicus", "result": 0.72, "unit": "nM"}]}
{"compound": "CC(C)(N)C(=O)N[C@H](CCCc1ccccc1)C(=O)N1CCC2(CC1)CC(=O)c1ccccc12", "values": [{"measurement": "EC50", "setting": "Rattus norvegicus", "result": 0.8, "unit": "nM"}, {"measurement": "Response", "setting": "Canis familiaris [11]", "result": "cured/treated is 1/1"}, {"measurement": "Response", "setting": "Canis familiaris [12]", "result": "cured/treated is 1/1"}, {"measurement": "Response", "setting": "Canis familiaris [13]", "result": "cured/treated is 1/1"}]}
{"compound": "CC(C)(N)C(=O)N[C@H](Cc1c[nH]c2ccccc12)C(=O)N1CCC2(CC1)CC(O)c1ccccc12", "note": "(stereo partly specified)", "values": [{"measurement": "Response", "setting": "Canis familiaris [1]", "result": "cured/treated is 1/1"}, {"measurement": "EC50", "setting": "Rattus norvegicus", "result": 0.6, "unit": "nM"}, {"measurement": "Response", "setting": "Canis familiaris [14]", "result": "cured/treated is 1/1"}, {"measurement": "Response", "setting": "Canis familiaris [3]", "result": "cured/treated is 1/1"}]}
{"compound": "CC(C)(N)C(=O)N[C@H](COCc1ccccc1)C(=O)N1CCC2(CCc3ccccc32)CC1", "values": [{"measurement": "EC50", "setting": "Rattus norvegicus", "result": 17, "unit": "nM"}]}
{"compound": "CC(C)(N)C(=O)N[C@H](COCc1ccccc1)C(=O)N1CCC2(CC1)CC(=O)c1ccccc12", "values": [{"measurement": "EC50", "setting": "Rattus norvegicus", "result": 4.8, "unit": "nM"}]}
{"compound": "CC(C)(N)C(=O)N[C@H](COCc1ccccc1)C(=O)N1CCC2(CC1)CC(O)c1ccccc12", "note": "(stereo partly specified)", "values": [{"measurement": "EC50", "setting": "Rattus norvegicus", "result": 4, "unit": "nM"}]}
